Measured values: patent US20020004958A1, “Dyeing substrates” (Novozymes A/S, priority 1996, published 2002)
Entries after “also recorded” stand apart in the source; their conditions may differ.

Tests used:
[1] = background statement; cited from earlier work
[2] = biological target: T1, horseradish peroxidase type VI-A (Armoracia rusticana, UniProt P00433); assay: Peroxidase-catalysed oxidation of substrates, initial velocity (absorbency 492 nm) vs substrate concentration, Michaelis/Menten; type: biochemical; conditions: for Kkat: Vmax/[E], worked out from peroxidase of 50,000 g/mol; for Properties as substrate for peroxidase (in words): peroxidase/hydrogen peroxide system, compared with OPD or 3,4-DABA
T1 construct: purchased Sigma 6782
T1 sequence (P00433 31-338 limits assumed): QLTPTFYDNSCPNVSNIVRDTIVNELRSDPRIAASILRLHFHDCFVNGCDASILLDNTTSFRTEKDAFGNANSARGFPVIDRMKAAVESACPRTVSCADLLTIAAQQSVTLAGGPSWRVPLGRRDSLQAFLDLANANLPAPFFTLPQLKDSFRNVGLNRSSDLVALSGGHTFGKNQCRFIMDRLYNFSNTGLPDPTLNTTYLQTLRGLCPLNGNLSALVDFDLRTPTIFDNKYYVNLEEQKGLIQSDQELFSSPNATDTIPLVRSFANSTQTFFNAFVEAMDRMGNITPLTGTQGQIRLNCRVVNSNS
Source text: Absorbancy at 492 nm was used as a measure of the course of the reaction. The initial velocity was taken to be the absorbancy at 492 nm two minutes after the addition of the peroxidase to a mixture of the substrate and hydrogen peroxide in a buffer with a pH of 5.0. The wavelength of 492 nm was chosen because it is employed in the standard assay procedures for OPD.
By varying the concentration of the substrate and at the same time measuring the initial velocity of the reaction it is posible to apply the Michaelis/Menten equation to the system.
Under ideal conditions the values determined experimentally will approach the value of the expression: [formula]
where [S] is the concentration of the substrate, Vmax is the maximum initial […] which is reached in the particular assay. Km is defined as the concentration of the substrate at Vmax/2. A small Km value will therefore be characteristic for an enzyme system where a low concentration of the substrates produces saturation of the enzyme.
The expression implies that the initial velocity will increase with increasing concentration of the substrate, but the curve for the velocity will flatten out and approach Vmax for very high concentrations of the substrate. In actual fact the parameter Kkat be calculated as Vmax/[E] where [E] is the molar concentration of the enzyme in the reaction. Kkat is the same as min^−1 and reflects the activity of the enzyme in a saturated solution upon the substrate.
The following solutions were prepared for use in the enzyme assay:
A 50 mM phosphate/citrate buffer with a pH of 5.0 was made by mixing a 50 mm Na2HPO4 solution and a 50 mm solution of citric acid. The pH was measured while mixing was in progress.
15 μl of a 30% solution of hydrogen peroxide (PERHYDROL, Merck) was thinned down with 25 ml of the assay buffer.
The stabilizing buffer for peroxidase, i.e. a buffer which stabilizes the enzyme, was prepared according to the method of Olsen and Little (1983). A 0.1M Na-acetate buffer, which was 0.5M in terms of CaCl2 was adjusted to pH 5.6.
10 mg of horseradish peroxidase type VI-A (Sigma no. 6782) were dissolved in 10 ml of the stabilizing buffer. This was stored at −15° C.
The standard peroxidase solution was diluted to 1:1000 with the 10 ml assay-buffer solution in 10 μl standard solution.
0.5 mmol of each substrate in 5 ml DMF.
The standard solutions were diluted by 1:10 with the assay buffer. Before being used the substrate solutions were diluted by 1:10. 0.5 ml of the standard solution was thinned down with 4.5 ml of the assay buffer.
The concentration of the peroxidase was held constant at 50 ng/ml during the whole investigation. By using the volume of substrate and the volumes of 10 vol-% DMF solution as given in table 4 it was possible to employ a constant reaction volume and a constant concentration of DMF. For all measurements there was used 1550 μl buffer and 50 μl bench solution of peroxidase. The total volume is then as follows: 300 μI DMF and substrate solution, 1550 μl buffer, […] bench solution of peroxidase and 50 μl hydrogen peroxide solution. That is 2000 μl in total.
The results of the measurements of initial velocities are stated in units of absorbency and not in molar units. In order to be able to measure the “true” velocity of reaction it is necessary to isolate the oxidation product for each substrate and determine the molar extinction coefficient. The value of Kkat is worked out from 1 mole of peroxidase of 50,000 g/mol.

[3] = test system: Salmonella tphimurium TA 98; assay: Ames test for mutagenicity, with and without S9-mix; type: cell-based; conditions: 100 μl of 50, 100 and 200 mM solutions in DMSO, with and without rat liver S9-mix
Experimental: The Ames test (Maron and Ames (1983)) was used to determine the mutagenic properties of the compounds. Nutrient media were prepared in the manner described by Venitt and Parry (1984). To 3×2 ml melted agar at 45° C. were added 100 μl of 50, 100 and 200 mM of solutions of the compounds dissolved in DMSO. By means of a pipette 100 μl of a well-grown culture of Salmonella tphimurium TA 98 (BIO-TEST gl. skolevej 47, 6731 Tiaereborg) were added to the same test-tube. The bacteria contain a frameshift mutation on the histinol-dehydrogenase gene and require histidin in order to grow. Mutagenic aromatic amines can cause the bacteria to mutate to His+ and they can then grow on the nutrient medium. The number of colonies after incubation therefore give a quantitative measure of the ability of the added compound to cause mutation. In all trials spontaneous mutations take place in the absence of a mutagen. These provide a measure of “background” mutation.
All trials were therefore carried out both with and without the addition of “S9-mix” from the livers of rats, this contains the P450 system. 0.5 ml of […] was added to each test-tube. The criteria for mutation are that increasing concentrations of the compound under investigation give a marked increase in the number of His+ mutants.

Kkat [2] | melting point [°C] | SMILES | Properties as substrate for peroxidase (in words) [2] | further results
2.2 * 10^8 1*mol^−1*min^−1 | 108 to 109 | COC(=O)c1ccc(N)c(N)c1 [methyl ester, 3,4-diaminobenzoic acid methyl ester] | significantly improved properties than 3,4-DABA | –
2.2 * 10^8 1*mol^−1*min^−1 | 73 to 74 | CC(C)OC(=O)c1ccc(N)c(N)c1 [isopropyl ester, 3,4-diamino benzoic acid isopropyl ester] | significantly improved properties than 3,4-DABA | –
2.0 * 10^8 1*mol^−1*min^−1 | – | Nc1ccc(C(=O)O)cc1N [3,4-DABA, 3,4-diamino benzoic acid] | considerably poorer substrate for peroxidase than is OPD; also recorded: higher Km-value at the same Vmax when compared with OPD | –

Second part, the compound before the results:

SMILES | Kkat [2] | melting point [°C] | Properties as substrate for peroxidase (in words) [2] | further results
CCn1c(=NN=c2sc3cc(S(=O)(=O)O)ccc3n2CC)sc2cc(S(=O)(=O)O)ccc21 [ABTS, 2,2-azino-di (3-ethyl-benzo thiazolin-6-sulphonic acid)] | – | – | – | Mutagenicity (known) [1]: mutagent
Nc1ccccc1N [OPD, o-phenylendiamine] | 1.6 * 10^8 1*mol^−1*min^−1 | – | – | Mutagenic properties (His+ mutants with increasing concentration) [3]: has mutagenic properties; Carcinogenicity (known) [1]: carcinogenic; Mutagenicity (known) [1]: mutagenic; also recorded: not a direct mutagen
Nc1ccc(C(=O)O)cc1 [PABA, p-amino benzoic acid] | – | – | – | Toxicity (generally considered) [1]: non-toxic
Nc1ccccc1 [aniline] | – | – | – | Toxicity (generally considered) [1]: very toxic
CCOC(=O)c1ccc(N)c(N)c1 [ethyl ester, 3,4-diamino benzoic acid ethyl ester] | 2.7 * 10^8 1*mol^−1*min^−1 | 112 to 113 | significantly improved properties than 3,4-DABA; also recorded: very high Vmax | –
